17 compounds from patent publication EP4563146A1 (IRBM S.P.A., priority 2023, dated 2025) can be followed below.

For one test, the system named is ZIKV replicon. As to the kind of experiment: ZIKV replication inhibition assay (NanoLuc replicon in Vero cells). Particulars: 72 h.
Test [1] addresses T1, West Nile Virus (WNV) NS2B-NS3 protease (West Nile virus, UniProt Q9Q6P4).
T1 construct: NS2B1423-1470); purchased R&D 2907-SE-020
As to the kind of experiment: WNV protease inhibition assay. The format is biochemical. Particulars: Table 4; letter codes for IC50. The text has this:
WNV protease inhibition assay

Where [2] appears, read: Zika virus, Vero, read-out: ZIKA Cell_Nanoluc.
Where [3] appears, read: Zika virus, Vero, read-out: ZIKA Cell_Nanoluc, Vero cells with stable ZIKV replicon, 72 h, Nano-Glo readout.
The mark [4] stands for this setting: read-out: ZIKA Cell_Nanoluc, Vero cells with stable ZIKV replicon, Nano-Glo readout.

Like-named read-outs stand apart in the source and are kept apart here. Bounds are passed on as bounds.

T1 sequence (Q9Q6P4 1423-1470): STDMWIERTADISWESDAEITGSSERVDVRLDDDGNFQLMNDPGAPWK
T1 sequence (Q9Q6P4 1506-1689): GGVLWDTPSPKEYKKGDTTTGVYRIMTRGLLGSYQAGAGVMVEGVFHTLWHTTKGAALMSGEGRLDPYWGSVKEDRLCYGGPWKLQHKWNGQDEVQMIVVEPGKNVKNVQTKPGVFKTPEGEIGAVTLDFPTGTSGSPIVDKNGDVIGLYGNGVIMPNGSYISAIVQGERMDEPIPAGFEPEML

Turning to `CN(C)C[C@H]1CC[C@H]([n+]2cc([N-]C(=O)Nc3cc(NC(=O)C(F)(F)CN4CCCC4)cc(C(F)(F)F)c3)on2)CC1` [Example 160, ((3-(2,2-Difluoro-3-(pyrrolidin-1-yl)propanamido)-5-(trifluoromethyl)phenyl)-carbamoyl)(3-((1R,4R)-4-((dimethylamino)-methyl)cyclohexyl)-1,2,3-oxadiazol-3-ium-5-yl)amide], the EC50 in the test with ZIKV replicon (setting [2]) was above 20000 nM. Besides, the IC50 (usually the concentration needed to halve the response being measured) in test [1] was 1000 to 20000 nM.
As for `Cc1ccccc1CC(=O)Nc1cc(NC(=O)[N-]c2c[n+]([C@@H]3CCC[C@@H](O)C3)no2)cc(C(F)(F)F)c1` [Example 215, (3-((1R,3R)-3-Hydroxycyclohexyl)-1,2,3-oxadiazol-3-ium-5-yl)((3-(2-(o-tolyl)acetamido)-5-(trifluoromethyl)phenyl)carbamoyl)amide], the EC50 in the test on ZIKV replicon (setting [3]) was below 100 nM. The compound also had a concentration for half-maximal inhibition (IC50) in test [1] below 100 nM.
`CN(C)C[C@H]1CC[C@H]([n+]2cc([N-]C(=O)Nc3cc(NC(=O)C4CCCc5ccccc54)cc(C(F)(F)F)c3)on2)CC1` (stereo partly drawn) [Example 177, (3-((1R,4R)-4-((Dimethylamino)methyl)-cyclohexyl)-1,2,3-oxadiazol-3-ium-5-yl)((3-(1,2,3,4-tetrahydronaphthalene-1-carboxamido)-5-(trifluoromethyl)phenyl)carbamoyl)amide]: in the test on ZIKV replicon (setting [2]), the EC50 was in the range of 1000 to 20000 nM. In test [1], this compound yielded an IC50 of 100 to 1000 nM.
In the case of `O=C([N-]c1c[n+]([C@H]2CCC[C@@H](c3cncnc3)C2)no1)Nc1ccnc(C(F)(F)F)c1` [Example 220, (3-((1S,3R)-3-(Pyrimidin-5-yl)cyclohexyl)-1,2,3-oxadiazol-3-ium-5-yl)((2-(trifluoromethyl)-pyridin-4-yl)carbamoyl)amide], the EC50 with ZIKV replicon (setting [3]) was in the range of 100 to 1000 nM. The same compound returned an IC50 in test [1] of 100 to 1000 nM.
As for `CC(C(=O)N(C)c1cc(NC(=O)[N-]c2c[n+]([C@H]3CC[C@H](CN(C)C)CC3)no2)cc(C(F)(F)F)c1)c1ccccc1` (stereo partly drawn) [Example 167, (3-((1R,4R)-4-((Dimethylamino)methyl)-cyclohexyl)-1,2,3-oxadiazol-3-ium-5-yl)((3-(N-methyl-2-phenylpropanamido)-5-(trifluoromethyl)phenyl)carbamoyl)amide], the EC50 in the test with ZIKV replicon (setting [2]) was in the range of 1000 to 20000 nM. The compound also registered an IC50 in test [1] of 100 to 1000 nM.
The matching figures for `O=C([N-]c1c[n+](C[C@H]2CC[C@@H](c3cncnc3)CC2)no1)Nc1ccnc(C(F)(F)F)c1` [Example 182, (3-(((1S,4S)-4-(Pyrimidin-5-yl)cyclohexyl)methyl)-1,2,3-oxadiazol-3-ium-5-yl)((2-(trifluoromethyl)pyridin-4-yl)carbamoyl)amide]: 1000 to 20000 nM and 100 to 1000 nM.
`Cc1ccccc1CC(=O)Nc1cc(NC(=O)[N-]c2c[n+]([C@H]3CC[C@H](C(=O)N(C)C)CC3)no2)cc(C(F)(F)F)c1` [Example 248, (3-((1R,4R)-4-(Dimethylcarbamoyl)-cyclohexyl)-1,2,3-oxadiazol-3-ium-5-yl)((3-(2-(o-tolyl)acetamido)-5-(trifluoromethyl)phenyl)-carbamoyl)amide]: in the test with ZIKV replicon (setting [2]), the EC50 is 1000 to 20000 nM. Besides, in test [1], the IC50 is below 100 nM.
For the compound `CN(C)C[C@H]1CC[C@H]([n+]2cc([N-]C(=O)Nc3cc(NC(=O)Cc4ccc(C(=O)O)cc4)cc(C(F)(F)F)c3)on2)CC1` [Example 156, ((3-(2-(4-Carboxyphenyl)acetamido)-5-(trifluoromethyl)phenyl)carbamoyl)(3-((1R,4R)-4-((dimethylamino)methyl)cyclohexyl)-1,2,3-oxadiazol-3-ium-5-yl)amide], in the test with ZIKV replicon (setting [4]), the EC50 lay within 1000 to 20000 nM. This compound also yielded an IC50 in test [1] of 1000 to 20000 nM.
Consider `Cc1ccnc(C)c1-c1ccc(C[n+]2cc([N-]C(=O)Nc3ccnc(C(F)(F)F)c3)on2)cc1` [Example 263, (3-(4-(2,4-Dimethylpyridin-3-yl)benzyl)-1,2,3-oxadiazol-3-ium-5-yl)((2-(trifluoromethyl)pyridin-4-yl)carbamoyl)amide], for which the EC50 in the test on ZIKV replicon (setting [3]) is below 100 nM. For the same compound, in test [1], the IC50 is below 100 nM.
As for `CNC(=O)[C@@H]1CCC[C@@H]([n+]2cc([N-]C(=O)Nc3cc(NC(=O)Cc4ccccc4C)cc(C(F)(F)F)c3)on2)C1` [Example 231, (3-((1R,3R)-3-(Methylcarbamoyl)cyclohexyl)-1,2,3-oxadiazol-3-ium-5-yl)((3-(2-(o-tolyl)acetamido)-5-(trifluoromethyl)phenyl)-carbamoyl)amide], in the test with ZIKV replicon (setting [3]), the EC50 was 1000 to 20000 nM. For the same compound, in test [1], the IC50 was below 100 nM.
Regarding `Cc1ncnc(C)c1-c1ccc(C[n+]2cc([N-]C(=O)N[C@@H]3CC[C@@H](C(F)(F)F)C3)on2)cc1` (racemic) [Example 256, (3-((4-(4,6-Dimethylpyrimidin-5-yl)phenyl)methyl)oxadiazol-3-ium-5-yl)-((rac-(1R,3R)-3-(trifluoromethyl)cyclopentyl)-carbamoyl)azanide], the EC50 in the test with ZIKV replicon (setting [2]) is 1000 to 20000 nM. In addition, in test [1], the IC50 was 100 to 1000 nM.
As for `CN(C)C[C@H]1CC[C@H]([n+]2cc([N-]C(=O)Nc3cc(NC(=O)[C@H](F)c4ccccc4F)cc(C(F)(F)F)c3)on2)CC1` (single isomer, unassigned) [Example 271], in the test with ZIKV replicon (setting [2]), the EC50 was 100 to 1000 nM. Further, the half-maximal inhibitory concentration (IC50) in test [1] is below 100 nM.
As to `Cc1ncnc(C)c1-c1ccc(C[n+]2cc([N-]C(=O)Nc3ccnc(C(C)(C)C)c3)on2)cc1` [Example 226, ((2-(tert-Butyl)pyridin-4-yl)carbamoyl)(3-(4-(4,6-dimethylpyrimidin-5-yl)benzyl)-1,2,3-oxadiazol-3-ium-5-yl)amide], the EC50 with ZIKV replicon (setting [3]) is 1000 to 20000 nM. Besides, in test [1], the IC50 was below 100 nM.
Consider `Cc1ccccc1CC(=O)Nc1cc(NC(=O)[N-]c2c[n+]([C@H]3CCC[C@@H](c4cncnc4)C3)no2)cc(C(F)(F)F)c1` [Example 222, (3-((1S,3R)-3-(Pyrimidin-5-yl)cyclohexyl)-1,2,3-oxadiazol-3-ium-5-yl)((3-(2-(o-tolyl)acetamido)-5-(trifluoromethyl)phenyl)-carbamoyl)amide], for which the EC50 with ZIKV replicon (setting [3]) lay in the range of 100 to 1000 nM. The IC50 in test [1] was below 100 nM.
With `Cc1cccc(CC(=O)Nc2cc(NC(=O)[N-]c3c[n+]([C@H]4CC[C@H](CN(C)C)CC4)no3)cc(C(F)(F)F)c2)c1C` [Example 212, (3-((1R,4R)-4-((Dimethylamino)methyl)-cyclohexyl)-1,2,3-oxadiazol-3-ium-5-yl)((3-(2-(2,3-dimethylphenyl)acetamido)-5-(trifluoromethyl)phenyl)carbamoyl)amide], the EC50 with ZIKV replicon (setting [2]) was in the range of 1000 to 20000 nM. Further, in test [1], the IC50 fell in the range of 100 to 1000 nM.
The matching figures for `C[C@H](C(=O)Nc1cc(NC(=O)[N-]c2c[n+]([C@H]3CC[C@H](CN(C)C)CC3)no2)cc(C(F)(F)F)c1)c1ccccc1` [Example 170, (3-((1R,4S)-4-((Dimethylamino)methyl)-cyclohexyl)-1,2,3-oxadiazol-3-ium-5-yl)((3-((S)-2-phenylpropanamido)-5-(trifluoromethyl)-phenyl)carbamoyl)amide]: 100 to 1000 nM and below 100 nM.
Turning to `CN(C)C[C@H]1CC[C@H]([n+]2cc([N-]C(=O)Nc3cc(NC(=O)CCc4cn(C)c5ccccc45)cc(C(F)(F)F)c3)on2)CC1` [Example 157, (3-((1R,4R)-4-((Dimethylamino)methyl)-cyclohexyl)-1,2,3-oxadiazol-3-ium-5-yl)((3-(3-(1-methyl-1H-indol-3-yl)propanamido)-5-(trifluoromethyl)phenyl)carbamoyl)amide], in the test with ZIKV replicon (setting [4]), the EC50 fell in the range of 1000 to 20000 nM. The compound further registered an IC50 in test [1] below 100 nM.
